In publication PMC6095626, “Screening of the Pathogen Box for inhibitors with dual efficacy against Giardia lamblia and Cryptosporidium parvum” (PLoS Neglected Tropical Diseases, 2018):

Tests used:
[1] = test system: C. parvum (UGA1 Nluc expressing strain in HCT-8 cells); assay: microbe, parasite or virus in culture; format: cell-based, Cryptosporidium parvum; conditions: for Crypto (10 uM) Mean % inhibition: initial Pathogen Box screen, single concentration 10 µM, inhibition compared to DMSO wells
Procedure: Growth inhibition and EC50 determination assays were performed using UGA1 Nluc expressing C. parvum strain in HCT-8 cells (ATCC^©, Manassas, VA) as previously described. HCT-8 cells were inoculated onto 96-well plates and allowed to grow for 48 hours to 90–100% confluence and then treated with single concentration (10 μM) or serially diluted compounds prior to oocyst infection. C. parvum oocysts were incubated for 10 minutes in 10% bleach at room temperature and then washed with DPBS. […] The cell monolayers were lysed for 1 hour before adding Nano-Glo® luciferase reagent (Promega, Madison, WI), and measuring relative luminescence units (RLU) in an EnVision Plate Reader (Perkin Elmer, Waltham, MA). Several parameters, including reproducibility and reliability, were previously evaluated to optimize this assay for low and high-throughput (HTP) screening of small molecule compounds against C. parvum. EC50 values were calculated using Prism 7 software (GraphPad Software, San Diego, CA).
C. parvum screening against the Pathogen Box compounds was performed as previously described starting at a concentration of 10 μM [23].

[2] = test system: G. lamblia trophozoites (luciferase expressing, WBC6); assay: microbe, parasite or virus in culture; format: cell-based, Giardia lamblia; conditions: for Giardia (16 uM) Mean % inhibition: initial Pathogen Box screen, single concentration 16 µM, inhibition compared to DMSO wells
Procedure: Trophozoites were harvested by chilling cultures on ice for 30 minutes and plated by adding 150 μL per well at a concentration of 250,000 cells/mL. Metronidazole (Sigma, St. Louis, MO) was used as a control and was serially diluted 1:2 from 40 μM to 0.04 μM and 150 μL was added to the 150 μL of the G. lamblia trophozoites. Plates were covered in plastic low-evaporation lids, sealed in individual anaerobic BD GasPak Bio-Bags (Becton Dickinson, San Jose, CA) and incubated at 37 °C for 24 hours. […] A duplicate plate was concurrently set up and assayed using a MOXI Z Mini Automated Cell Counter Kit (Orflo, Ketchum, ID). Results obtained from the bioluminescence assay and the MOXI counter data were compared to evaluate their correlation to each another. Albendazole (Sigma, St. Louis, MO), an alternative giardiasis therapeutic, was assayed in concentrations from 4 μM to 0.004 μM with only the luciferase expressing G. lamblia cells. […]

Row | Compound | Crypto (10 uM) Mean % inhibition [1] | Giardia (16 uM) Mean % inhibition [2] | G. lamblia EC50 ([2]; luciferase expressing G. lamblia trophozoites, 24 hours, D-luciferin bioluminescence read-out) | C. parvum EC50 ([1]; Nluc C. parvum in HCT-8 cells, 48 hours)
1 | Cc1noc(C)c1C(=O)N1CCCC(c2[nH]c3c(C)cccc3c2-c2ccncc2)C1 (stereo not shown) [MMV020623] | 43% | X* (Mean or standard deviation are negative but not significantly different from the control to be a growth promoter) |  | 
2 | COc1ccc(-c2cncc3ccc(C(=O)NCCCn4ccnc4)nc23)cc1 [MMV020670] | 42% | 19% |  | 
3 | COc1ccc(Cl)cc1NC(=O)CN(C)C(=O)c1cnn(-c2ccccc2)n1 [MMV020710] | 43% | 7.5% |  | 
4 | CC(C)(C)c1cc(C(=O)Nc2cccnc2)cc(C(=O)Nc2cccnc2)c1 [MMV020982] | 67% | 10% |  | 
5 | c1ccc(-c2nc(NC3CCCCC3)cc(C3CC3)n2)nc1 [MMV021013] | 92% | 65% |  | 
6 | CO/C=C(\C(=O)OC)c1ccccc1Oc1cc(Oc2ccccc2C#N)ncn1 [MMV021057] | 51% | 3.75% |  | 
7 | Cc1cc(NCC(C)C)c2[nH]nc(-c3ccccc3)c2n1 [MMV021375] | X* (Mean or standard deviation are negative but not significantly different from the control to be a growth promoter) | 62% |  | 
8 | Cc1cc(NCCc2ccccc2)nc(NC(=N)Nc2ccc(Cl)cc2)n1 [MMV021660] | X* (Mean or standard deviation are negative but not significantly different from the control to be a growth promoter) | 90% |  | 
9 | CN1CCC(NCc2cccc(-c3ccc(S(=O)(=O)NCc4ccccc4)cc3)c2)CC1 [MMV022029] | X* (Mean or standard deviation are negative but not significantly different from the control to be a growth promoter) | 89% |  | 
10 | CCN(CC)CCCN1CCN(C(=O)c2cccc(-c3noc(C(F)(F)F)n3)c2)CC1 [MMV022236] | 38% | 8% |  | 
11 | c1ccc2c(c1)CN(CC1CC1)CC1(CCN(Cc3c[nH]c4cnccc34)CC1)O2 [MMV023183] | X* (Mean or standard deviation are negative but not significantly different from the control to be a growth promoter) | 72% |  | 
12 | Cc1nc(-c2cccc(NCc3ccccc3)c2)[nH]c1C [MMV023227] | 25% | 58% |  | 
13 | Nc1nccc2ccc(-c3ccc4nccn4c3)cc12 [MMV023233] | X* (Mean or standard deviation are negative but not significantly different from the control to be a growth promoter) | 85% |  | 
14 | Nc1ncc(-c2cn[nH]c2)cc1-c1nc2cc(Cl)cnc2[nH]1 [MMV023370] | X* (Mean or standard deviation are negative but not significantly different from the control to be a growth promoter) | 38% |  | 
15 | O=C(NC1CCN(c2ccnc3ccccc23)C1)c1cccc(C(F)(F)F)c1 (stereo not shown) [MMV023388] | X* (Mean or standard deviation are negative but not significantly different from the control to be a growth promoter) | 86% |  | 
16 | NS(=O)(=O)c1cccc(-c2ccc3ncc(N4CCOCC4)nc3c2)c1 [MMV023860] | 89% | 27% |  | 
17 | CC(C)(C)c1cc(C(=O)N2CCN(c3nccnc3C#N)CC2)n(Cc2ccccc2)n1 [MMV023949] | 55% | 36% |  | 

Row | Compound | Crypto (10 uM) Mean % inhibition [1] | Giardia (16 uM) Mean % inhibition [2] | G. lamblia EC50 ([2]; luciferase expressing G. lamblia trophozoites, 24 hours, D-luciferin bioluminescence read-out) | C. parvum EC50 ([1]; Nluc C. parvum in HCT-8 cells, 48 hours)
18 | O=C(Nc1cccc(-c2ccc(NCCCN3CCCC3)nc2)c1)c1ccccc1 [MMV023953] | X* (Mean or standard deviation are negative but not significantly different from the control to be a growth promoter) | 82% |  | 
19 | c1cncc(NCc2ccc(-c3cc4ccncc4cc3OC3CCNCC3)s2)c1 [MMV023969] | 25% | 11% |  | 
20 | COc1ccc(-c2cnc3ccc(N4CCCC4)nn23)cc1OC [MMV023985] | 93% | X* (Mean or standard deviation are negative but not significantly different from the control to be a growth promoter) |  | 
21 | O=C(Nc1ccccc1)c1ccc(-c2cc3ccncc3cc2OC2CCNCC2)s1 [MMV024035] | 27% | 66% |  | 
22 | NS(=O)(=O)c1cncc(-c2ccc3nccc(-c4cn[nH]c4)c3n2)c1 [MMV024101] | X* (Mean or standard deviation are negative but not significantly different from the control to be a growth promoter) | 14% |  | 
23 | Cc1ccc(S(=O)(=O)n2cc(-c3ccnc(N)c3)c3cc(Br)cnc32)cc1 [MMV024114] | 86% | 78% | not potent | 
24 | CN(C)CCNC(=O)N1CCCN(c2ncnc3cc(-c4ccccc4)sc23)CC1 [MMV024195] | 15% | 31% |  | 
25 | Cc1ccc2[nH]c(C3CCCNC3)c(-c3ccncc3)c2c1 (stereo not shown) [MMV024311] | 56% | 22% |  | 
26 | O=C(NC1CC1)c1ccc(N2CCC(Cc3ccccc3)CC2)nc1 [MMV024397] | X* (Mean or standard deviation are negative but not significantly different from the control to be a growth promoter) | X* (Mean or standard deviation are negative but not significantly different from the control to be a growth promoter) |  | 
27 | O=C(Nc1cccc(Cl)c1)c1cnc(N2CCN(c3ccncc3)CC2)c(Cl)c1 [MMV024406] | 91% | 91% |  | not potent
28 | CN(C(=O)c1cc2c(-c3cncnc3)cccc2[nH]1)c1ccccc1 [MMV024443] | 87% | X* (Mean or standard deviation are negative but not significantly different from the control to be a growth promoter) |  | 
29 | Cc1cccc(C(=O)Nc2ccnc(N(C)C3CCN(CC(C)C)CC3)c2)c1 [MMV024829] | X* (Mean or standard deviation are negative but not significantly different from the control to be a growth promoter) | 89% |  | 
30 | O=C(Nc1ccc(N2CCNCC2)nc1)c1oc(-c2ccccc2)nc1C(F)(F)F [MMV024937] | X* (Mean or standard deviation are negative but not significantly different from the control to be a growth promoter) | 7% |  | 
31 | CS(=O)(=O)c1cccc(-c2cnc3[nH]cc(-c4ccc(CCC(=O)O)cc4)c3c2)c1 [MMV026020] | X* (Mean or standard deviation are negative but not significantly different from the control to be a growth promoter) | 19% |  | 
32 | Nc1nccc2ccc(Oc3ccncc3)cc12 [MMV026313] | X* (Mean or standard deviation are negative but not significantly different from the control to be a growth promoter) | X* (Mean or standard deviation are negative but not significantly different from the control to be a growth promoter) |  | 
33 | CCn1ncc2c(NC3CCOCC3)c(CNC(=O)c3ccnn3C)c(C)nc21 [MMV026356] | 31% | 68% |  | 
34 | OCc1ccc(-c2cncc(Nc3cccc(Cl)c3)c2)cc1 [MMV026468] | X* (Mean or standard deviation are negative but not significantly different from the control to be a growth promoter) | 39% |  | 
